Molecules are shown by their SMILES. pIC50: −log10 of the molar value. A value given as a limit tells only on which side of the number the result lay.

For the assay, the system named is MDA-MB-231 human breast cancer cells. Put plainly: Cell proliferation assay (CellTiter-Glo, 72 hours treatment). The format is cell-based. Particulars: Homo sapiens; MDA-MB-231 cells, 72 hours at 37° C., CellTiter-Glo; read-out: MDA-MB-231 cell proliferation assay (IC50). The gist of the method: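 MDA-MB-231 cells seeded at 2,500 cells/well, treated next day with compound or DMSO vehicle for 72 h at 37 °C. Proliferation read by CellTiter-Glo; IC50 from sigmoidal non-linear regression, binned as +++ (<100 nM), ++ (100–1000 nM), + (>1000 nM).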
In general terms: ATP-based viability assays read luminescence as a measure of living cells.

As to `COc1cncc2c1[C@]1(O)[C@H](O)[C@H](C(=O)N(C)Cc3cccnc3)[C@@H](c3ccccc3)[C@]1(c1ccc(Br)cc1)O2` (racemic) [277F, Rac-(4bS,5R,6R,7S,7aR)-7a-(4-bromophenyl)-4b,5-dihydroxy-4-methoxy-N-methyl-7-phenyl-N-(pyridin-3-ylmethyl)-4b,6,7,7a-tetrahydro-5H-cyclopenta[4,5]furo[2,3-c]pyridine-6-carboxamide], the pIC50 was above 7.00. Then `COc1cncc2c1[C@]1(O)[C@H](O)[C@H](C(=O)N3CCC(F)(F)C3)[C@@H](c3ccccc3)[C@]1(c1ccc(Br)cc1)O2` (racemic) [279F, Rac-((4bS,5R,6R,7S,7aR)-7a-(4-bromophenyl)-4b,5-dihydroxy-4-methoxy-7-phenyl-4b,6,7,7a-tetrahydro-5H-cyclopenta[4,5]furo[2,3-c]pyridin-6-yl)(3,3-difluoropyrrolidin-1-yl)methanone], with above 7.00.

Regarding `COc1cncc2c1[C@]1(O)[C@H](O)[C@H](C(=O)N3CCOCC3)[C@@H](c3ccccc3)[C@]1(c1ccc(C(F)(F)F)cc1)O2` (racemic) [281F, rac-((4bS,5R,6R,7S,7aR)-4b,5-dihydroxy-4-methoxy-7-phenyl-7a-(4-(trifluoromethyl)phenyl)-4b,6,7,7a-tetrahydro-5H-cyclopenta[4,5]furo[2,3-c]pyridin-6-yl)(morpholino)methanone], the pIC50 was 6.00 to 7.00. As to `COc1cncc2c1[C@]1(O)[C@H](O)[C@H](C(=O)N3CCN(C)CC3)[C@@H](c3ccccc3)[C@]1(c1ccc(C(F)(F)F)cc1)O2` (racemic) [283F, rac-((4bS,5R,6R,7S,7aR)-4b,5-dihydroxy-4-methoxy-7-phenyl-7a-(4-(trifluoromethyl)phenyl)-4b,6,7,7a-tetrahydro-5H-cyclopenta[4,5]furo[2,3-c]pyridin-6-yl)(4-methylpiperazin-1-yl)methanone], the pIC50 was 6.00 to 7.00. Then `COc1cncc2c1[C@]1(O)[C@H](O)[C@H](C(=O)NCC(F)F)[C@@H](c3ccccc3)[C@]1(c1ccc(C(F)(F)F)cc1)O2` (racemic) [285F, Rac-(4bS,5R,6R,7S,7aR)—N-(2,2-difluoroethyl)-4b,5-dihydroxy-4-methoxy-7-phenyl-7a-(4-(trifluoromethyl)phenyl)-4b,6,7,7a-tetrahydro-5H-cyclopenta[4,5]furo[2,3-c]pyridine-6-carboxamide], with 6.00 to 7.00; and `COc1cncc2c1[C@]1(O)[C@](O)(CN3CCOCC3)C[C@@H](c3ccccc3)[C@]1(c1ccc(C#N)cc1)O2` (racemic) [287F, Rac-4-((4bS,5R,7S,7aR)-4b,5-dihydroxy-4-methoxy-5-(morpholinomethyl)-7-phenyl-4b,5,6,7-tetrahydro-7aH-cyclopenta[4,5]furo[2,3-c]pyridin-7a-yl)benzonitrile], with below 6.00; and `COc1cncc2c1[C@]1(O)C(CN3CCOCC3)C[C@@H](c3ccccc3)[C@]1(c1ccc(C(F)(F)F)cc1)O2` (mixture of isomers) [289F, Rac-(4bR,7S,7aR)-4-methoxy-5-(morpholinomethyl)-7-phenyl-7a-(4-(trifluoromethyl)phenyl)-5,6,7,7a-tetrahydro-4bH-cyclopenta[4,5]furo[2,3-c]pyridin-4b-ol], with 6.00 to 7.00. Then `COc1nc(Cl)cc2c1[C@]1(O)[C@H](O)[C@H](CN)[C@@H](c3ccccc3)[C@]1(c1ccc(Br)cc1)O2` (racemic) [292F, Rac-(5aR,6S,7S,8R,8aS)-7-(aminomethyl)-5a-(4-bromophenyl)-3-chloro-1-methoxy-6-phenyl-5a,6,7,8-tetrahydro-8aH-cyclopenta[4,5]furo[3,2-c]pyridine-8,8a-diol], with above 7.00. Then `COc1nc(C#N)cc2c1[C@]1(O)[C@H](O)[C@H](CN)[C@@H](c3ccccc3)[C@]1(c1ccc(C#N)cc1)O2` (racemic) [293F, Rac-(5aR,6S,7S,8R,8aS)-7-(aminomethyl)-5a-(4-cyanophenyl)-8,8a-dihydroxy-1-methoxy-6-phenyl-5a,7,8,8a-tetrahydro-6H-cyclopenta[4,5]furo[3,2-c]pyridine-3-carbonitrile], with above 7.00. Consider `COc1nc(Cl)cc2c1[C@]1(O)[C@H](O)[C@H](CN)[C@@H](c3ccccc3)[C@]1(c1ccc(C#N)cc1)O2` (racemic) [294F, Rac-4-((5aR,6S,7S,8R,8aS)-7-(aminomethyl)-3-chloro-8,8a-dihydroxy-1-methoxy-6-phenyl-6,7,8,8a-tetrahydro-5aH-cyclopenta[4,5]furo[3,2-c]pyridin-5a-yl)benzonitrile], for which the pIC50 was above 7.00. Regarding `COc1nc(Cl)cc2c1[C@]1(O)[C@H](O)[C@H](C(=O)O)[C@@H](c3ccccc3)[C@]1(c1ccc(Br)cc1)O2` (racemic) [295F, rac-(5aR,6S,7R,8R,8aS)-5a-(4-bromophenyl)-3-chloro-8,8a-dihydroxy-1-methoxy-6-phenyl-5a,7,8,8a-tetrahydro-6H-cyclopenta[4,5]furo[3,2-c]pyridine-7-carboxylic acid], the pIC50 was above 7.00.

`COc1cncc2c1[C@]1(O)[C@@H](CN3CC4(COC4)C3)[C@H](CO)[C@@H](c3ccccc3)[C@]1(c1ccc(Br)cc1)O2` (racemic) [compound 201, Rac-(4bR,5R,6R,7S,7aR)-5-((2-oxa-6-azaspiro[3.3]heptan-6-yl)methyl)-7a-(4-bromophenyl)-6-(hydroxymethyl)-4-methoxy-7-phenyl-5,6,7,7a-tetrahydro-4bH-cyclopenta[4,5]furo[2,3-c]pyridin-4b-ol]: the pIC50 was above 7.00. For `CN(C)C(=O)[C@H]1[C@@H](O)[C@@]2(O)c3ncc(C#N)cc3O[C@@]2(c2ccc(C#N)cc2)[C@@H]1c1ccccc1` (single isomer, unassigned) [2F], the pIC50 was 6.00 to 7.00. Consider `CN(C)C(=O)[C@H]1[C@@H](O)[C@@]2(O)c3ncc(Cl)cc3O[C@@]2(c2ccc(C#N)cc2)[C@@H]1c1ccccc1` (single isomer, unassigned) [3F], for which the pIC50 is above 7.00.

In the case of `COc1ccc([C@@]23Oc4cc(C#N)cnc4[C@]2(O)[C@H](O)[C@H](C(=O)N(C)C)[C@H]3c2ccccc2)cc1` (single isomer, unassigned) [4F], the pIC50 was 6.00 to 7.00. For `COc1ccc([C@@]23Oc4cc(Cl)cnc4[C@]2(O)[C@H](O)[C@H](C(=O)N(C)C)[C@H]3c2ccccc2)cc1` (single isomer, unassigned) [5F], the pIC50 was 6.00 to 7.00. Then `COc1cnc2c(c1)O[C@@]1(c3ccc(C#N)cc3)[C@H](c3ccccc3)[C@@H](C(=O)N(C)C)[C@@H](O)[C@@]21O` (single isomer, unassigned) [6F], with 6.00 to 7.00; and `Cc1ccc([C@@]23Oc4cc(Cl)cnc4[C@]2(O)[C@H](O)[C@H](C(=O)N(C)C)[C@H]3c2ccccc2)cc1` (single isomer, unassigned) [7F], with 6.00 to 7.00. For `CN(C)C(=O)[C@H]1[C@@H](O)[C@@]2(O)c3ncc(Cl)cc3O[C@@]2(c2ccc(C(F)(F)F)cc2)[C@@H]1c1ccccc1` (single isomer, unassigned) [8F], the pIC50 was 6.00 to 7.00.

In the case of `CN(C)C(=O)[C@H]1[C@@H](O)[C@@]2(O)c3ncccc3O[C@@]2(c2ccc(C#N)cc2)[C@@H]1c1ccccc1` (single isomer, unassigned) [9F], the pIC50 was below 6.00. As to `CN(C)C(=O)[C@H]1[C@@H](O)[C@@]2(O)c3ncc(Cl)cc3O[C@@]2(c2ccc(F)cc2)[C@@H]1c1ccccc1` (single isomer, unassigned) [10F], the pIC50 was below 6.00. Then `CN(C)C(=O)[C@H]1[C@@H](O)[C@@]2(O)c3ncc(Cl)cc3O[C@@]2(c2ccc(Cl)cc2)[C@@H]1c1ccccc1` (single isomer, unassigned) [11F], with 6.00 to 7.00; and `CN(C)C(=O)[C@H]1[C@@H](O)[C@@]2(O)c3ncc(Cl)cc3O[C@@]2(c2ccc(S(C)(=O)=O)cc2)[C@@H]1c1ccccc1` (single isomer, unassigned) [12F], with below 6.00; and `CN(C)C(=O)[C@H]1[C@@H](O)[C@@]2(O)c3ncc(Cl)cc3O[C@@]2(c2ccc(C(F)F)cc2)[C@@H]1c1ccccc1` (single isomer, unassigned) [16F], with 6.00 to 7.00. Then `CN(C)C(=O)[C@H]1[C@@H](O)[C@@]2(O)c3ncc(Cl)cc3O[C@@]2(c2ccc(OC(F)(F)F)cc2)[C@@H]1c1ccccc1` (single isomer, unassigned) [17F], with 6.00 to 7.00; and `N#Cc1ccc([C@@]23Oc4cc(Cl)cnc4[C@]2(O)[C@H](O)[C@H](C(N)=O)[C@H]3c2ccccc2)cc1` (single isomer, unassigned) [18F], with above 7.00. Take `CNC(=O)[C@H]1[C@@H](O)[C@@]2(O)c3ncc(Cl)cc3O[C@@]2(c2ccc(C#N)cc2)[C@@H]1c1ccccc1` (single isomer, unassigned) [20F]: the pIC50 is above 7.00. Then `CN(C)C(=O)[C@H]1[C@@H](O)[C@@]2(O)c3nn(C)cc3O[C@@]2(c2ccc(C#N)cc2)[C@@H]1c1ccccc1` (single isomer, unassigned) [23F], with below 6.00; and `COc1cncc2c1[C@]1(O)[C@H](O)[C@H](C(=O)N(C)C)[C@@H](c3ccccc3)[C@]1(c1ccc(C#N)cc1)O2` (single isomer, unassigned) [64F], with above 7.00. Turning to `COc1cncc2c1[C@]1(O)[C@H](O)[C@H](CN(C)C)[C@@H](c3ccccc3)[C@]1(c1ccc(C#N)cc1)O2` (single isomer, unassigned) [66F], the pIC50 was above 7.00. Then `COc1cncc2c1[C@]1(O)[C@H](O)[C@H](CN3CCNCC3)[C@@H](c3ccccc3)[C@]1(c1ccc(C#N)cc1)O2` (single isomer, unassigned) [67F], with 6.00 to 7.00; and `CCN(CC)C[C@H]1[C@@H](O)[C@@]2(O)c3c(OC)cncc3O[C@@]2(c2ccc(C#N)cc2)[C@@H]1c1ccccc1` (single isomer, unassigned) [73F], with above 7.00; and `COc1cncc2c1[C@]1(O)[C@@H]3OC(=O)N[C@@H]3[C@@H](c3ccccc3)[C@]1(c1ccc(C#N)cc1)O2` (single isomer, unassigned) [81F], with above 7.00.

The values above are taken from patent publication US10577378B2, “EIF4A-inhibiting compounds and methods related thereto” (eFFECTOR Therapeutics, Inc., priority 2015, dated 2020).
